In patent US12550899B2, “Topramezone derivative and use thereof” (priority 2023, dated 2026):

How the values were obtained:
Type in all cases: in vivo
[1] = system: test weeds (grassy weeds, sedge, broadleaf weeds); test: Laboratory bioactivity efficacy test 2.1, symptoms on the test weeds; settings: test 2.1 weeds
From the text: Refer to the “Pesticides guidelines for laboratory bioactivity tests Part 4: Foliar spray application test for herbicide activity, NY/T 1155.4-2006”.
• grassy weeds: Setaria viridis, Chloris virgata; • sedge: Cyperus rotundus; • Broadleaf weeds: Amaranthus retroflexus, Chenopodium album, Acalypha australis, Commelina communis, Convolvulus arvensis, Cirsium setosum, and Eclipta prostrata. 2.1.3 Test Conditions
(§1) The soil used for the test was a mixture of surface 20 cm loam and vermiculite, mixed in a volume ratio of 3:1 to form a culture soil. The test corn was cultured in a glass greenhouse with a temperature ranging from 25° C. to 35° C. and under natural light.
(§2) A measured quantity of weed seeds were sown in plastic pots with a diameter of 9 cm, and covered with 1-2 mm of soil. The ports were then placed in enamel trays filled with water, and watered by bottom irrigation. After sowing, the pots were transferred to the glass greenhouse for cultivation and growth.
(§3) Five dosages were set for Compound I, Compound II and the control herbicide Topramezone, which were 3.75, 7.5, 15, 30 and 60 grams of active ingredient per hectare respectively. In addition, a blank control was also prepared.
(§4) The required amount of the herbicide was accurately measured out, an appropriate amount of emulsifier and organic solvent were added to dissolve the herbicide, and then a certain amount of water was added therein until the herbicide was diluted to the required dosage by using the serial dilution method for standby.
The fresh weight of each treatment was surveyed 14 days after the application of the herbicide. The fresh weight control efficacy was calculated according to the following formula: fresh weight control efficacy (%)=(control fresh weight−treatment fresh weight)/control fresh weight×100.

Corn (Zhengdan 958) = test: Corn safety laboratory test; settings: for Fresh Weight / Fresh Weight Control Efficacy: 15 days after application
Method: (§5) Three corn varieties: Zhengdan 958, white waxy corn, and sweet corn (Runhua sweet corn).
as §1
as §2, with “corn” for “weed”, “15” for “9”, “2-3 cm” for “1-2 mm”
(§6) In the corn safety test, dosages were set for the two Compounds (Compound I of the present invention and Compound II of the present invention) and the control herbicide Topramezone, which were 15, 30, 60, and 120 grams of active ingredient per hectare respectively. In addition, a blank control was also prepared.
as §4
(§7) Corn stems and leaves were uniformly sprayed at the 3-4-leaf stage.
(§8) The ASS-3 automatic control spraying system with a fan-shaped nozzle was used indoors for herbicide application. Depending on the nozzle pressure and flow rate, 50 mL of herbicide solution was applied to a spraying area of 1.1 m^2 (which was equivalent to the water consumption of 30 L per mu). The system's operating speed was calibrated. The plastic pots to be treated were arranged evenly on the spraying platform to ensure uniform treatment. The spray pressure was set to 0.35 MPa, and the flow rate of the fan-shaped nozzle was set to 800 mL/min. The spraying was carried out in sequence from the low dosage to the high dosage. Each treatment was repeated three times.
(§9) The herbicide was applied once. After spraying, the pots were air-dried for one day and then placed in the glass greenhouse. Regular watering was conducted to maintain moisture.
(§10) After application of the herbicide, whether there were any phytotoxic symptoms in the corn for each treatment was recorded. If yes, the phytotoxicity symptoms and grade were recorded in detail. 15 days after application, the fresh weight of the corn in each treatment was measured and the fresh weight control efficacy was calculated to assess the safety of the herbicide on the corn.
(§11) The treatment results were calculated according to the following formula: fresh weight control efficacy (%)=(control fresh weight−treatment fresh weight)/control fresh weight×100.

Corn (White Waxy Corn) = test: Corn safety laboratory test; settings: for Fresh Weight / Fresh Weight Control Efficacy: 15 days after application
Method: as §5, §1
as §2, with “corn” for “weed”, “15” for “9”, “2-3 cm” for “1-2 mm”
as §6, §4, §7, §8, §9, §10, §11

Corn (Sweet Corn) = test: Corn safety laboratory test; settings: for Fresh Weight / Fresh Weight Control Efficacy: 15 days after application
Method: as §5, §1
as §2, with “corn” for “weed”, “15” for “9”, “2-3 cm” for “1-2 mm”
as §6, §4, §7, §8, §9, §10, §11

Digitaria sanguinalis = test: Laboratory bioactivity efficacy test 2.2 (foliar spray); settings: fresh weight control efficacy 20 days post-application
Method: (§12) • grassy weeds: Digitaria sanguinalis, Eleusine indica, Echinochloa crusgalli; • Broadleaf weeds: Portulaca oleracea, Abutilon theophrasti medicus. 2.2.2 Test Conditions
(§13) The soil used for the test was a mixture of surface 20 cm loam and vermiculite, mixed in a volume ratio of 3:1 to form a culture soil. The test weeds were cultured in a glass greenhouse with a temperature ranging from 25° C. to 35° C. and under natural light.
(§14) Quantified seeds of Digitaria sanguinalis, Eleusine indica, Echinochloa crusgalli, Portulaca oleracea, and Abutilon theophrasti medicus were sown in plastic pots with a diameter of 9 cm, and covered with 1-2 mm of soil. The ports were then placed in enamel trays filled with water, and watered by bottom irrigation. After the water seeped to the soil surface, the pots were transferred to the glass greenhouse for standby.
as §3
(§15) The required amount of the herbicide was accurately measured out and directly added with water, which was diluted to the required dosage by using the serial dilution method for standby.
as §8, with “test was conducted on grassy weeds at the two-leaf and one-heart stage, Abutilon theophrasti medicus at the 2-true-leaf stage, and Portulaca oleracea at the 3-5-leaf stage, with the stems and leaves both sprayed uniformly. The ASS-4” for “ASS-3”, “two to four” for “three”
as §9
(§16) The damage symptoms of the weeds (such as growth inhibition, chlorosis, malformation, etc.) were carefully recorded at 3, 7, 10, and 20 days after herbicide application. A visual comparison of the herbicide effectiveness was made. At 20 days post-application, the fresh weight of the aboveground parts of the weeds from each treatment group was measured, and the fresh weight control efficacy was calculated.
(§17) The treatment results were calculated according to the following formula: weed fresh weight control efficacy (%)=(control fresh weight−treatment fresh weight)/control fresh weight×100.
(§18) A DPS statistical software was used to conduct regression analysis on the logarithmic values of the herbicide dosage and the probit values of the weed fresh weight control efficacy, and the correlation coefficient, GR50, GR90, and the 95% confidence interval were calculated.

[2] = system: Abutilon theophrasti medicus; test: as above; settings: for Visual observation of weeds: 3 to 7 days after application, broadleaf weeds like Abutilon theophrasti medicus; for GR90 (95% confidence interval) / GR50 (95% confidence interval): fresh weight control efficacy 20 days post-application
Method: as §12, §13, §14, §3, §15
as §8, with “test was conducted on grassy weeds at the two-leaf and one-heart stage, Abutilon theophrasti medicus at the 2-true-leaf stage, and Portulaca oleracea at the 3-5-leaf stage, with the stems and leaves both sprayed uniformly. The ASS-4” for “ASS-3”, “two to four” for “three”
as §9, §16, §17, §18

Portulaca oleracea = test: as above; settings: for GR50 (95% confidence interval) / GR90 (95% confidence interval): fresh weight control efficacy 20 days post-application
Method: as §12, §13, §14, §3, §15
as §8, with “test was conducted on grassy weeds at the two-leaf and one-heart stage, Abutilon theophrasti medicus at the 2-true-leaf stage, and Portulaca oleracea at the 3-5-leaf stage, with the stems and leaves both sprayed uniformly. The ASS-4” for “ASS-3”, “two to four” for “three”
as §9, §16, §17, §18

[3] = Zhengdan 958, dosage 15 g a.i./ha
[4] = Zhengdan 958, dosage 30 g a.i./ha
[5] = Zhengdan 958, dosage 60 g a.i./ha
[6] = Zhengdan 958, dosage 120 g a.i./ha
[7] = White Waxy Corn, dosage 15 g a.i./ha
[8] = White Waxy Corn, dosage 30 g a.i./ha
[9] = White Waxy Corn, dosage 60 g a.i./ha
[10] = White Waxy Corn, dosage 120 g a.i./ha
[11] = Sweet Corn, dosage 15 g a.i./ha
[12] = Sweet Corn, dosage 30 g a.i./ha
[13] = Sweet Corn, dosage 60 g a.i./ha
[14] = Sweet Corn, dosage 120 g a.i./ha

Structure (SMILES): COC(=O)OC(C)Oc1c(C(=O)c2ccc(S(C)(=O)=O)c(C3=NOCC3)c2C)cnn1C (stereo not drawn) [Compound I, 1-((4-(3-(4,5-dihydroisoxazol-3-yl)-2-methyl-4-(methylsulfonyl)benzoyl)-1-methyl-1H-pyrazol-5-yl)oxy)ethyl methyl carbonate]
- Symptoms on the test weeds [1]: clear pesticidal efficacy symptoms
- Corn Growth Status (Corn (Zhengdan 958); in vivo): Good, Normal Growth
- Growth of corn / phytotoxicity (in words) (Corn (Zhengdan 958); in vivo): normal, without causing any phytotoxicity
- Corn Growth Status (Corn (White Waxy Corn); in vivo): Good, Normal Growth
- Growth of corn / phytotoxicity (in words) (Corn (White Waxy Corn); in vivo): normal, without causing any phytotoxicity
- Corn Growth Status (Corn (Sweet Corn); in vivo): Good, Normal Growth
- Growth of corn / phytotoxicity (in words) (Corn (Sweet Corn); in vivo): normal, without causing any phytotoxicity
- GR50 (Digitaria sanguinalis): 10.92 g a.i./ha
- GR90 (Digitaria sanguinalis): 35.88 g a.i./ha
- Visual observation of weeds [2]: directly dried up and died
- GR90 (95% confidence interval) ([2]; Abutilon theophrasti Medicago): 9.48 (4.30-13.21) g a.i./ha
- GR50 (95% confidence interval) ([2]; Abutilon theophrasti medicus): 3.16 (0.37-5.92) g a.i./ha
- Control efficacy compared with Topramezone (in words) (Portulaca oleracea): significantly better control efficacy
- Efficacy relative to that of Topramezone (Portulaca oleracea): approximately 3.8 times
- GR50 (95% confidence interval) (Portulaca oleracea): 3.83 (2.36-5.16) g a.i./ha
- GR90 (95% confidence interval) (Portulaca oleracea): 9.29 (7.46-10.81) g a.i./ha

Structure (SMILES): Cc1c(C(=O)c2cnn(C)c2OC(=O)C(C)(C)C)ccc(S(C)(=O)=O)c1C1=NOCC1 [Compound II, 4-(3-(4,5-dihydroisoxazol-3-yl)-2-methyl-4-(methylsulfonyl)benzoyl)-1-methyl-1H-pyrazol-5-yl pivalate]
- Symptoms on the test weeds [1]: clear pesticidal efficacy symptoms
- Corn Growth Status (Corn (Zhengdan 958); in vivo): Good, Normal Growth
- Growth of corn / phytotoxicity (in words) (Corn (Zhengdan 958); in vivo): normal, without causing any phytotoxicity
- Corn Growth Status (Corn (White Waxy Corn); in vivo): Good, Normal Growth
- Safety to corn (in words) (Corn (White Waxy Corn); in vivo): safe
- Corn Growth Status (Corn (Sweet Corn); in vivo): Good, Normal Growth
- Safety to corn (in words) (Corn (Sweet Corn); in vivo): safe
- GR50 (Digitaria sanguinalis): 12.53 g a.i./ha
- GR90 (Digitaria sanguinalis): 48.19 g a.i./ha
- Visual observation of weeds [2]: directly dried up and died
- GR50 (95% confidence interval) ([2]; Abutilon theophrasti Medicago): 1.19 (0.26-2.46) g a.i./ha
- GR90 (95% confidence interval) ([2]; Abutilon theophrasti Medicago): 7.90 (4.76-10.66) g a.i./ha
- Control efficacy compared with Topramezone (in words) (Portulaca oleracea): slightly better control efficacy
- GR50 (95% confidence interval) (Portulaca oleracea): 5.57 (4.07-7.00) g a.i./ha
- GR90 (95% confidence interval) (Portulaca oleracea): 28.20 (23.41-35.73) g a.i./ha

Structure (SMILES): Cc1c(C(=O)c2cnn(C)c2O)ccc(S(C)(=O)=O)c1C1=NOCC1 [Topramezone]
- Symptoms on the test weeds [1]: clear pesticidal efficacy symptoms
- Growth of corn / phytotoxicity (in words) (Corn (Zhengdan 958); Zhengdan 958, all dosages): normal
- Corn Growth Status (Corn (Zhengdan 958); [3]): Good, Normal Growth
- Fresh Weight (Corn (Zhengdan 958); [3]): 15.2 g
- Fresh Weight Control Efficacy (Corn (Zhengdan 958); [3]): −0.5%
- Corn Growth Status (Corn (Zhengdan 958); [4]): Good, Normal Growth
- Fresh Weight (Corn (Zhengdan 958); [4]): 14.9 g
- Fresh Weight Control Efficacy (Corn (Zhengdan 958); [4]): 1.8%
- Corn Growth Status (Corn (Zhengdan 958); [5]): Good, Normal Growth
- Fresh Weight (Corn (Zhengdan 958); [5]): 15.2 g
- Fresh Weight Control Efficacy (Corn (Zhengdan 958); [5]): −0.5%
- Corn Growth Status (Corn (Zhengdan 958); [6]): Good, Normal Growth
- Fresh Weight (Corn (Zhengdan 958); [6]): 15.6 g
- Fresh Weight Control Efficacy (Corn (Zhengdan 958); [6]): −2.8%
- Corn Growth Status (Corn (White Waxy Corn); [7]): Good, Normal Growth
- Fresh Weight (Corn (White Waxy Corn); [7]): 9.7 g
- Fresh Weight Control Efficacy (Corn (White Waxy Corn); [7]): −2.7%
- Corn Growth Status (Corn (White Waxy Corn); [8]): Good, Normal Growth
- Fresh Weight (Corn (White Waxy Corn); [8]): 9.4 g
- Fresh Weight Control Efficacy (Corn (White Waxy Corn); [8]): 0.3%
- Corn Growth Status (Corn (White Waxy Corn); [9]): Good, Normal Growth
- Fresh Weight (Corn (White Waxy Corn); [9]): 9.5 g
- Fresh Weight Control Efficacy (Corn (White Waxy Corn); [9]): −0.3%
- Corn Growth Status (Corn (White Waxy Corn); [10]): Good, Normal Growth
- Fresh Weight (Corn (White Waxy Corn); [10]): 9.0 g
- Fresh Weight Control Efficacy (Corn (White Waxy Corn); [10]): 4.5%
- Growth of corn / phytotoxicity (in words) (Corn (White Waxy Corn); white waxy corn, highest dosage, 120 grams of active ingredient per hectare): normal, without causing any phytotoxicity
- Corn Growth Status (Corn (Sweet Corn); [11]): Good, Normal Growth
- Fresh Weight (Corn (Sweet Corn); [11]): 7.6 g
- Fresh Weight Control Efficacy (Corn (Sweet Corn); [11]): −2.0%
- Corn Growth Status (Corn (Sweet Corn); [12]): Good, Normal Growth
- Fresh Weight (Corn (Sweet Corn); [12]): 7.4 g
- Fresh Weight Control Efficacy (Corn (Sweet Corn); [12]): −0.3%
- Corn Growth Status (Corn (Sweet Corn); [13]): Good, Normal Growth
- Fresh Weight (Corn (Sweet Corn); [13]): 7.4 g
- Fresh Weight Control Efficacy (Corn (Sweet Corn); [13]): −0.3%
- Corn Growth Status (Corn (Sweet Corn); [14]): Good, Normal Growth
- Fresh Weight (Corn (Sweet Corn); [14]): 7.3 g
- Fresh Weight Control Efficacy (Corn (Sweet Corn); [14]): 1.0%
- Safety to corn (in words) (Corn (Sweet Corn); sweet corn, all dosages): safe
- GR50 (Digitaria sanguinalis): 10.09 g a.i./ha
- GR90 (Digitaria sanguinalis): 36.27 g a.i./ha
- Visual observation of weeds [2]: directly dried up and died
- GR50 (95% confidence interval) ([2]; Abutilon theophrasti Medicago): 2.02 (0.77-3.38) g a.i./ha
- GR90 (95% confidence interval) ([2]; Abutilon theophrasti Medicago): 8.83 (6.22-11.10) g a.i./ha
- GR50 (95% confidence interval) (Portulaca oleracea): 7.56 (6.00-9.07) g a.i./ha
- GR90 (95% confidence interval) (Portulaca oleracea): 35.74 (29.42-46.03) g a.i./ha
